# What was measured:
# BRSK1 = molecular target: T1, BRSK1 (Homo sapiens, UniProt Q8TDC3); test: KINOMEscan panel screen; assay type: binding; settings: read-out: Percent Control(%)
# T1 construct: purchased DiscoveRx KINOMEscan (Ambit Biosciences)
# FLT3-ITD = FLT3-ITD (Homo sapiens, UniProt P36888, ITD); test: biochemical; assay type: binding
# LATS1 = molecular target: T2, LATS1 (Homo sapiens, UniProt O95835); test: KINOMEscan panel screen; assay type: binding; settings: read-out: Percent Control(%)
# T2 construct: purchased DiscoveRx KINOMEscan (Ambit Biosciences)
# DCAMKL3 = molecular target: T3, DCAMKL3 (Homo sapiens, UniProt Q9C098); test: KINOMEscan panel screen; assay type: binding; settings: read-out: Percent Control(%)
# T3 construct: purchased DiscoveRx KINOMEscan (Ambit Biosciences)
# MARK3 = molecular target: T4, MARK3 (Homo sapiens, UniProt P27448); test: KINOMEscan panel screen; assay type: binding; settings: read-out: Percent Control(%)
# T4 construct: purchased DiscoveRx KINOMEscan (Ambit Biosciences)
# FAK = molecular target: T5, FAK (Homo sapiens, UniProt Q05397); test: KINOMEscan panel screen; assay type: binding; settings: read-out: Percent Control(%)
# T5 construct: purchased DiscoveRx KINOMEscan (Ambit Biosciences)
# IRAK3 = molecular target: T6, IRAK3 (Homo sapiens, UniProt Q9Y616); test: KINOMEscan panel screen; assay type: binding; settings: read-out: Percent Control(%)
# T6 construct: purchased DiscoveRx KINOMEscan (Ambit Biosciences)
# PIK3CA(E542K) = molecular target: T7, PIK3CA(E542K) (Homo sapiens, UniProt P42336, E542K); test: KINOMEscan panel screen; assay type: binding; settings: read-out: Percent Control(%)
# T7 construct: purchased DiscoveRx KINOMEscan (Ambit Biosciences)
# FLT3(K663Q) = molecular target: T8, FLT3(K663Q) (Homo sapiens, UniProt P36888, K663Q); test: KINOMEscan panel screen; assay type: binding; settings: read-out: Percent Control(%)
# T8 construct: purchased DiscoveRx KINOMEscan (Ambit Biosciences)
# CSNK1G1 = molecular target: T9, CSNK1G1 (Homo sapiens, UniProt Q9HCP0); test: KINOMEscan panel screen; assay type: binding; settings: read-out: Percent Control(%)
# T9 construct: purchased DiscoveRx KINOMEscan (Ambit Biosciences)
# T9 sequence (Q9HCP0 whole entry): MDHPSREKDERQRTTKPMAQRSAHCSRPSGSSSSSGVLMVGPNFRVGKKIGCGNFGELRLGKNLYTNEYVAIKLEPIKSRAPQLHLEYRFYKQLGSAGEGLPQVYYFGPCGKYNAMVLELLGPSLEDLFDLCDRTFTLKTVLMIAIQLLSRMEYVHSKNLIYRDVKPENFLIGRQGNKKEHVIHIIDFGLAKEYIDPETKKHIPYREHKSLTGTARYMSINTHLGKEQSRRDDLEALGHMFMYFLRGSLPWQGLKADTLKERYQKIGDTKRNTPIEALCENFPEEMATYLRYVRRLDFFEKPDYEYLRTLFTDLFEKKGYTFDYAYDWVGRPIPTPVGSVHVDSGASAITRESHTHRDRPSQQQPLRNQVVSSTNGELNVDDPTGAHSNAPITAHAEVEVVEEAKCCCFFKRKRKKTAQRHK
# ASK2 = molecular target: T10, ASK2 (Homo sapiens, UniProt O95382); test: KINOMEscan panel screen; assay type: binding; settings: read-out: Percent Control(%)
# T10 construct: purchased DiscoveRx KINOMEscan (Ambit Biosciences)
# ERN1 = ERN1 (Homo sapiens, UniProt O75460); test: KINOMEscan panel screen; assay type: binding; settings: read-out: Percent Control(%)
# primary AML PBMCs = test: Long-term culture-initiating cell (LTC-IC) assay; assay type: cell-based, human
# Method: (§1) In addition to the SP cell assay, we also evaluated the effects of SKLB-677 on the long-term culture-initiating (LTC-IC) cells; the long-term culture of LTC-IC cells can be used as surrogate markers of self-renewal capacity. SKLB-677 treated primary AML PBMCs or normal PBMCs were co-cultured with M2-10B4 stromal cells for 6 weeks, and then the colony formation capacity of LTC-IC cells were determined. In this assay, three primary AML PBMC samples and three normal PBMC samples were included, and each sample was conducted in triplicate.
# (§2) PBMCs from AML patients (n = 3) and normal people (n = 3) were plated on M2-10B4 feeder cell layers (irradiated with 8000cGy) established in 6-well plates in HLTM medium (Myelocult H5100, […]) freshly supplemented with 10^−6 M hydrocortisone ([…]). Cultures were maintained with 0.1% DMSO or SKLB-677 for […] with weekly half-media changes, before seeding harvested cells into Colony-forming unit assays (cells were seeded in ultra-low attachment 6-well plates (Corning) in triplicate with the complete MethoCult Media ([…]) for 14 days). The assay for each sample was performed in triplicate. The colonies were counted under a microscope, and an obvious and visible cell cluster was considered a colony. The representative images were taken on an Axiovert 200 microscope with an AxiocamMRm camera with 0.30 aperture. Image acquisition software: AxioVisionRell 4.8.
# (§3) Figure 4 The in vitro effects of SKLB-677 on leukemia side population (SP) cells and leukemia-initiating cells (LICs). (a) MV4-11 cells were stained with Hoechst 33342 after a treatment of SKLB-677 for 12 h. […] (b) The separated PBMCs were incubated on M2-10B4 stromal cells with SKLB-677 (1 nM and 10 nM for primary AML PBMCs, 10 nM and 50 nM for normal PBMCs) and/or 0.1% DMSO and then half medium replaced weekly for six weeks in long-term culture-initiating cells (LTC-IC) assays. Representative CAFCs (cobble stone area forming cells, the clusters of LTC-IC cells) are shown (left, black arrows).
# normal PBMCs = test: Long-term culture-initiating cell (LTC-IC) assay; assay type: cell-based, human; settings: 10 nM and 50 nM
# Method: as §1, §2, §3
# ROCK1 = ROCK1 (Homo sapiens, UniProt Q13464); test: KINOMEscan panel screen; assay type: binding; settings: read-out: Percent Control(%)
# Chain of ROCK1 (Q13464 whole entry): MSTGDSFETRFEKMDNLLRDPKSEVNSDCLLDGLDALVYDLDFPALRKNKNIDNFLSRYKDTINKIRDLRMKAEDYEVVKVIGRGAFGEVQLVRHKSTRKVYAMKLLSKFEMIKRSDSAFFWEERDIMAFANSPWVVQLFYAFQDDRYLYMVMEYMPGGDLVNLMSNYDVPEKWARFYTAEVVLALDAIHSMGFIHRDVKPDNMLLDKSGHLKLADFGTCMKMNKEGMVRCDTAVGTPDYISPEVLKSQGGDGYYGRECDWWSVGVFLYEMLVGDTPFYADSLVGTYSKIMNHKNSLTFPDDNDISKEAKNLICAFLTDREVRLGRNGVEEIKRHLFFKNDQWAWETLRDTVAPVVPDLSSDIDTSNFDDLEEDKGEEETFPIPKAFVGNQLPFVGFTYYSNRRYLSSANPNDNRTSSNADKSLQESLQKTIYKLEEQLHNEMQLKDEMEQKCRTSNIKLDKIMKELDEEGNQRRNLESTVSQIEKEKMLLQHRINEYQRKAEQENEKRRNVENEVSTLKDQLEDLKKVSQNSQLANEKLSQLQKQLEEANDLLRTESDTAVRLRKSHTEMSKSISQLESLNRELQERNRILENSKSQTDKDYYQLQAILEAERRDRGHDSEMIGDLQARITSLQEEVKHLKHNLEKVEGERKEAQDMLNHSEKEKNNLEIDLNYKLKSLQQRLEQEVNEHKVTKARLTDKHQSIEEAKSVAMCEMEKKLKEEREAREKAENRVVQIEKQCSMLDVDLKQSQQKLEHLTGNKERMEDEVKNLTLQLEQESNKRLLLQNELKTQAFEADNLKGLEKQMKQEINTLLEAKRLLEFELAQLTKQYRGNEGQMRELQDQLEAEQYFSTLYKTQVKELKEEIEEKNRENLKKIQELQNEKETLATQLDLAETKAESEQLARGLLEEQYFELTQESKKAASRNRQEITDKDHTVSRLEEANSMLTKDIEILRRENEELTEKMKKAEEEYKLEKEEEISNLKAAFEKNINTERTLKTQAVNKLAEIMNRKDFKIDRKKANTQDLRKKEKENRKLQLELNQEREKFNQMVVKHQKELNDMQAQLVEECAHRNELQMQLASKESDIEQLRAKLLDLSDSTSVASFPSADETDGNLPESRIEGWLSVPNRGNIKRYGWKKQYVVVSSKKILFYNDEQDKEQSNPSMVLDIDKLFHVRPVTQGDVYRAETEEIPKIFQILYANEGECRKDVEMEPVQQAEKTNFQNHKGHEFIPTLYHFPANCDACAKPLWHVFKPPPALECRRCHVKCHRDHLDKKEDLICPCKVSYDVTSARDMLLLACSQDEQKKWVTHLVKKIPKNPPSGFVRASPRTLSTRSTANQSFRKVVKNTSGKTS
# CLK4 = molecular target: T11, CLK4 (Homo sapiens, UniProt Q9HAZ1); test: KINOMEscan panel screen; assay type: binding; settings: read-out: Percent Control(%)
# T11 construct: purchased DiscoveRx KINOMEscan (Ambit Biosciences)
# LCK = LCK (Homo sapiens, UniProt P06239); test: KINOMEscan panel screen; assay type: binding; settings: read-out: Percent Control(%)
# LRRK2 = molecular target: T12, LRRK2 (Homo sapiens, UniProt Q5S007); test: KINOMEscan panel screen; assay type: binding; settings: read-out: Percent Control(%)
# T12 construct: purchased DiscoveRx KINOMEscan (Ambit Biosciences)
# RET = molecular target: T13, RET (Homo sapiens, UniProt P07949); test: KINOMEscan panel screen; assay type: binding; settings: read-out: Percent Control(%)
# T13 construct: purchased DiscoveRx KINOMEscan (Ambit Biosciences)
# ERBB2 = ERBB2 (Homo sapiens, UniProt P04626); test: KINOMEscan panel screen; assay type: binding; settings: read-out: Percent Control(%)
# Chain of ERBB2 (P04626 23-1255): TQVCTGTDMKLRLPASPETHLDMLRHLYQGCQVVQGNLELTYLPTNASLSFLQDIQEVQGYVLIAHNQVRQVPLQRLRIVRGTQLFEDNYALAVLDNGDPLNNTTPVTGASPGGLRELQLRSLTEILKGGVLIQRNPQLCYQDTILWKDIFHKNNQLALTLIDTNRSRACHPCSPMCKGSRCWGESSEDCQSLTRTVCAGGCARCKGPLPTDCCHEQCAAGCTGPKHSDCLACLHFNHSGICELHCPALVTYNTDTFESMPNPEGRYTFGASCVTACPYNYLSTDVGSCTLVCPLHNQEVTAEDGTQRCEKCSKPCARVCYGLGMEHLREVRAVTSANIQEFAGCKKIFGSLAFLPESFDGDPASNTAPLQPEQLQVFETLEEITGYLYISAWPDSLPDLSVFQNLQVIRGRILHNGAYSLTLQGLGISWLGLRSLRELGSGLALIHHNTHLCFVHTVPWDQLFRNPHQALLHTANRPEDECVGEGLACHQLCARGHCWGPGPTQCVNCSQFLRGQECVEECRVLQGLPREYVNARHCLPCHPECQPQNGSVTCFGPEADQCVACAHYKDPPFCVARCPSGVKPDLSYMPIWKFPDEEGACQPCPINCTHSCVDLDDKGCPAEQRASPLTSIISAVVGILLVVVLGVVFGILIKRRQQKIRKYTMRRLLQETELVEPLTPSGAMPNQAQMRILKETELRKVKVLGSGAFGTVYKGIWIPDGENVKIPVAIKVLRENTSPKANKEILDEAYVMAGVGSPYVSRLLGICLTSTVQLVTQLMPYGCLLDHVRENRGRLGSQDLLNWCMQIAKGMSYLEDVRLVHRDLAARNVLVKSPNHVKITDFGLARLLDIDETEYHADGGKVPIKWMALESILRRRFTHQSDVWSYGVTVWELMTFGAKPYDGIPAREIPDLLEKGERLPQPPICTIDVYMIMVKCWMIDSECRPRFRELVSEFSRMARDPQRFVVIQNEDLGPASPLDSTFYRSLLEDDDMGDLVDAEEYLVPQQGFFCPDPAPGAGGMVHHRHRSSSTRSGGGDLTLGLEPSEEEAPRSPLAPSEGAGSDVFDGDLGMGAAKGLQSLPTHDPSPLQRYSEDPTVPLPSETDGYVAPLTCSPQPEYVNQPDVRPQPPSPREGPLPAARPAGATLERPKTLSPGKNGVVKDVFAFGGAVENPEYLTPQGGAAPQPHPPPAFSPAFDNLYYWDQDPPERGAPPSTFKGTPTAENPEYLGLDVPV
# [1] = molecular target: T14, RSK4(Kin.Dom.1-N-terminal) (Homo sapiens, UniProt Q9UK32); test: KINOMEscan panel screen; assay type: binding; settings: read-out: Percent Control(%)
# T14 construct: RSK4(Kin.Dom.1-N-terminal); purchased DiscoveRx KINOMEscan (Ambit Biosciences)
# NEK7 = molecular target: T15, NEK7 (Homo sapiens, UniProt Q8TDX7); test: KINOMEscan panel screen; assay type: binding; settings: read-out: Percent Control(%)
# T15 construct: purchased DiscoveRx KINOMEscan (Ambit Biosciences)
# T15 sequence (Q8TDX7 whole entry): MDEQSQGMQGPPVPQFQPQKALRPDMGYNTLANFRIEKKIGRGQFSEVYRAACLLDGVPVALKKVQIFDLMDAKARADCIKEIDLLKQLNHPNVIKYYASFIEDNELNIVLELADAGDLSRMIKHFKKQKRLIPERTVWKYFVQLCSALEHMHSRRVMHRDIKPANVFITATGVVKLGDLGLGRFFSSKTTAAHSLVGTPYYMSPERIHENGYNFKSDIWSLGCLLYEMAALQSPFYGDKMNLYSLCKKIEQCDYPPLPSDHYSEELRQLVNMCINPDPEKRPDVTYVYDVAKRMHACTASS
# ACVR1B = molecular target: T16, ACVR1B (Homo sapiens, UniProt P36896); test: KINOMEscan panel screen; assay type: binding; settings: read-out: Percent Control(%)
# T16 construct: purchased DiscoveRx KINOMEscan (Ambit Biosciences)
# T16 sequence (P36896 24-505): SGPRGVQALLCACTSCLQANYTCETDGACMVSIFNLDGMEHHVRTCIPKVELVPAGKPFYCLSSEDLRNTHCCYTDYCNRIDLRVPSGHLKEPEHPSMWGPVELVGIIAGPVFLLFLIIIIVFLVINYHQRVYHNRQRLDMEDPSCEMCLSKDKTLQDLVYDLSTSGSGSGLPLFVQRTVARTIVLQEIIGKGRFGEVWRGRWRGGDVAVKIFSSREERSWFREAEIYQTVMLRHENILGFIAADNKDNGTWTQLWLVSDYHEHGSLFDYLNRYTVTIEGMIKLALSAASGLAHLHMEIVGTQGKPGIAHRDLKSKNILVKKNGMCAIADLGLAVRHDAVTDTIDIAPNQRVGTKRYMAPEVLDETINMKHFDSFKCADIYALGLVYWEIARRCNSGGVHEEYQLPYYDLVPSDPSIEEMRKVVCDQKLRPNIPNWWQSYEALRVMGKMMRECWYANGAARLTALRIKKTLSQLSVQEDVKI
# FGFR4 = molecular target: T17, FGFR4 (Homo sapiens, UniProt P22455); test: KINOMEscan panel screen; assay type: binding; settings: read-out: Percent Control(%)
# T17 construct: purchased DiscoveRx KINOMEscan (Ambit Biosciences)
# ABL1-nonphosphorylated = molecular target: T18, ABL1-nonphosphorylated (Homo sapiens, UniProt P00519); test: KINOMEscan panel screen; assay type: binding; settings: read-out: Percent Control(%)
# T18 construct: purchased DiscoveRx KINOMEscan (Ambit Biosciences)
# T18 sequence (P00519 whole entry): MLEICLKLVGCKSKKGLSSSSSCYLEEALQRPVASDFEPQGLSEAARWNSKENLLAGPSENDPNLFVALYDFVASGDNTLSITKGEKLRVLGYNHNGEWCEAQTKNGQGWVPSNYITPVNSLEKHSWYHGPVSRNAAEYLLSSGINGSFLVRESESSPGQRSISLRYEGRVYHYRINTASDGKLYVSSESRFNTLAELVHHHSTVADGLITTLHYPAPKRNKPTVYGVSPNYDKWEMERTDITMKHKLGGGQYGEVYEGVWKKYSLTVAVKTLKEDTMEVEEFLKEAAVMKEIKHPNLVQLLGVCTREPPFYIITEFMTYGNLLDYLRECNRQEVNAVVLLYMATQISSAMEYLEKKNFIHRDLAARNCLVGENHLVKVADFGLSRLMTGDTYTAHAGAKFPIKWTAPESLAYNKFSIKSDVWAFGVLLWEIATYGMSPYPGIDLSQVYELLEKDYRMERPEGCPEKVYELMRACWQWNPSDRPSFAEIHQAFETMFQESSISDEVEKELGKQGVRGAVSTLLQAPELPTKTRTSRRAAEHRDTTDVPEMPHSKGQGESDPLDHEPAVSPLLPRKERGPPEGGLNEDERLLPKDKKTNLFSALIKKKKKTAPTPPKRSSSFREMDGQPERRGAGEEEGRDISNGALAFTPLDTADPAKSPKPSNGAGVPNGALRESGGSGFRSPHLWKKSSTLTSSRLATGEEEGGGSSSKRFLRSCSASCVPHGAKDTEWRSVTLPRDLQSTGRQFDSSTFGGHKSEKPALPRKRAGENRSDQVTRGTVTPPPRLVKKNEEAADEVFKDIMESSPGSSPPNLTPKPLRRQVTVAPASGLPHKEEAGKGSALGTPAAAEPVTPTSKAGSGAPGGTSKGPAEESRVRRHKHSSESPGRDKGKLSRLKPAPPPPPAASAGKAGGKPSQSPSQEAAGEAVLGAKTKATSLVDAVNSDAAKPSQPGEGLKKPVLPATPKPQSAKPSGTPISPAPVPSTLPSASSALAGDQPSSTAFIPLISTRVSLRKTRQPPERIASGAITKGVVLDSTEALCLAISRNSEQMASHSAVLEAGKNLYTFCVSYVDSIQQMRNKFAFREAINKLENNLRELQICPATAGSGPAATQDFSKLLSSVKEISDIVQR
# PFCDPK1(P.falciparum) = molecular target: T19, PFCDPK1(P.falciparum) (Plasmodium falciparum, UniProt P62344); test: KINOMEscan panel screen; assay type: binding; settings: read-out: Percent Control(%)
# T19 construct: purchased DiscoveRx KINOMEscan (Ambit Biosciences)
# TGFBR2 = molecular target: T20, TGFBR2 (Homo sapiens, UniProt P37173); test: KINOMEscan panel screen; assay type: binding; settings: read-out: Percent Control(%)
# T20 construct: purchased DiscoveRx KINOMEscan (Ambit Biosciences)
# FGFR3(G697C) = molecular target: T21, FGFR3(G697C) (Homo sapiens, UniProt P22607, G697C); test: KINOMEscan panel screen; assay type: binding; settings: read-out: Percent Control(%)
# T21 construct: purchased DiscoveRx KINOMEscan (Ambit Biosciences)
# WNK3 = molecular target: T22, WNK3 (Homo sapiens, UniProt Q9BYP7); test: KINOMEscan panel screen; assay type: binding; settings: read-out: Percent Control(%)
# T22 construct: purchased DiscoveRx KINOMEscan (Ambit Biosciences)
# PIK3CA(Q546K) = molecular target: T23, PIK3CA(Q546K) (Homo sapiens, UniProt P42336, Q546K); test: KINOMEscan panel screen; assay type: binding; settings: read-out: Percent Control(%)
# T23 construct: purchased DiscoveRx KINOMEscan (Ambit Biosciences)
structure (smiles),measurement,setting,value
"CC(C)(C)c1cc(NC(=O)Nc2ccc(Oc3ncnc4[nH]ncc34)c(F)c2)no1 [SKLB-677, 1-(4-(1H-pyrazolo[3,4-d]pyrimidin-4-yloxy)-3-fluorophenyl)-3-(5-tert-butylisoxazol-3-yl)urea]",remaining binding at 10 µM,BRSK1,85%
same,Kd,FLT3-ITD,1.3 nM
same,remaining binding at 10 µM,LATS1,47%
same,remaining binding at 10 µM,DCAMKL3,81%
same,remaining binding at 10 µM,MARK3,68%
same,remaining binding at 10 µM,FAK,84%
same,remaining binding at 10 µM,IRAK3,52%
same,remaining binding at 10 µM,PIK3CA(E542K),100%
same,remaining binding at 10 µM,FLT3(K663Q),1.8%
same,remaining binding at 10 µM,CSNK1G1,86%
same,remaining binding at 10 µM,ASK2,32%
same,remaining binding at 10 µM,ERN1,100%
same,average LTC-IC colony numbers of three samples compared with control,primary AML PBMCs; 1 nM,30%
same,average LTC-IC colony numbers of three samples compared with control,primary AML PBMCs; 10 nM,10%
same,average LTC-IC colony numbers of three normal PBMC samples,normal PBMCs,almost not changed
same,remaining binding at 10 µM,ROCK1,100%
same,remaining binding at 10 µM,CLK4,9.6%
same,remaining binding at 10 µM,LCK,0.3%
same,remaining binding at 10 µM,LRRK2,52%
same,remaining binding at 10 µM,RET,0.05%
same,remaining binding at 10 µM,ERBB2,100%
same,remaining binding at 10 µM,[1],64%
same,remaining binding at 10 µM,NEK7,48%
same,remaining binding at 10 µM,ACVR1B,100%
same,remaining binding at 10 µM,FGFR4,4.8%
same,remaining binding at 10 µM,ABL1-nonphosphorylated,1.2%
same,remaining binding at 10 µM,PFCDPK1(P.falciparum),26%
same,remaining binding at 10 µM,TGFBR2,100%
same,remaining binding at 10 µM,FGFR3(G697C),22%
same,remaining binding at 10 µM,WNK3,100%
same,remaining binding at 10 µM,PIK3CA(Q546K),100%

# — article PMC4620497 (Scientific Reports, 2015)
